According to ChEMBL document CHEMBL1201862, “PubChem BioAssay data set” (2004):
Active and inactive are the calls of the source.

Assays:
[1] = target: Protein disulfide-isomerase (Homo sapiens, UniProt P07237); assay: PDI inhibitors, insulin aggregation turbidity, dose response, biochemical, absorbance, cherry-picked samples (AID 602350); assay type: functional
[2] = target: T1, High affinity choline transporter 1 (Homo sapiens, UniProt Q9GZV3); assay: CHT activators, dose response, cell-based, 10-point CRC, membrane potential dye (AID 602376); assay type: functional
T1 sequence (Q9GZV3 whole entry): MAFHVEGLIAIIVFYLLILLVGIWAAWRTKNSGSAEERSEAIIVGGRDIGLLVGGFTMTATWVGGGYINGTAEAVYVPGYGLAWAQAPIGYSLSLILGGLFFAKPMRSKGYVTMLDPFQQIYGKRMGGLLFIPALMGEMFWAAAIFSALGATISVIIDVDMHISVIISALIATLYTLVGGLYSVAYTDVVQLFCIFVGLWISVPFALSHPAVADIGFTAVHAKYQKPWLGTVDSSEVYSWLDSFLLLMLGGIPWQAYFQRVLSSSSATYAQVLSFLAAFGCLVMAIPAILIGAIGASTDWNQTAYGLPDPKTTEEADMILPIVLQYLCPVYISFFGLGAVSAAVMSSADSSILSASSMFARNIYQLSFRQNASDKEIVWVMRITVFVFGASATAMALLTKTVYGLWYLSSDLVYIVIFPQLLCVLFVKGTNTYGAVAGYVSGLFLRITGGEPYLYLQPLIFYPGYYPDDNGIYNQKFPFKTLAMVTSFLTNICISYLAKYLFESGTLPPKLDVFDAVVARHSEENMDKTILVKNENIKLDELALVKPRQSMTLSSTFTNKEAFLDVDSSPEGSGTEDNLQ

[3] = system: Jurkat; assay: antigen receptor-induced NF-kB inhibitors, dose response, Jurkat, luciferase reporter, luminescence, B- and T-cell (AID 489004); assay type: functional, cell-based; conditions: Homo sapiens;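 note: NF-kB luciferase reporter Jurkat cells stimulated with PMA plus ionomycin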
[4] = cytotoxicity in HEK-293T NF-kB-Luc cells, dose response, cytotoxicity control for B/T-cell NF-kB inhibitor project, cell-based, uHTS hits (AID 489019); assay type: functional;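 note: IC50 reflects cytotoxicity as loss of cell viability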
[5] = cytotoxicity toward NIH3T3 fibroblasts, dose response, counter-screen, cell-based, ATP luminescence, mouse fibroblasts (AID 2010); assay type: functional;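 note: cells exposed to compound for about 90 hours before reading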
[6] = inhibitors of intracellular T. cruzi replication, confirmation, NIH3T3 host cells, beta-gal luminescence (AID 2044); assay type: functional, cell-based;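 note: intracellular parasites grown in NIH/3T3 mouse fibroblasts as host cells; luminescent beta-galactosidase reporter signal from transgenic T. cruzi replicating inside host cells; inhibitors lower the luminescence signal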
[7] = system: INS1; assay: beta cell apoptosis inhibitors, cytokine rescue, dose response, luminescence, retest (AID 449756); assay type: functional, cell-based; conditions: Rattus norvegicus;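 note: cell death triggered by IL-1 beta plus TNF-alpha plus IFN-gamma mixture; protective hits raise ATP signal compared with cytokine alone wells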
[8] = target: Paired box protein Pax-8 (Homo sapiens, UniProt Q06710); assay: inhibitors of PAX8-driven TPO luciferase reporter, dose response, RMG-I cells, cherry-pick (AID 687027); assay type: functional, cell-based;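 note: luciferase reporter driven by Pax8 target thyroperoxidase promoter measured by SteadyGlo luminescence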
[9] = non-specific cell cytotoxicity, dose response, cytotoxicity control for PAX8 inhibitor project, plate reader, dry powder samples (AID 743021); assay type: functional, cell-based
[10] = growth suppression of beta-catenin-knockout colon cells, dose response, cell-based, HCT116, human colon tumor (AID 1045); assay type: functional;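 note: HCT116 colon tumor cells with beta catenin knocked out; cells exposed to compound for 60 hours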
[11] = target: T2, Replicative DNA helicase DnaB (Mycobacterium tuberculosis, UniProt P9WMR3); assay: DnaB intein splicing inhibitors, dose response, biochemical, cell-free fluorescence (AID 449749); assay type: functional
T2 sequence (P9WMR3 whole entry): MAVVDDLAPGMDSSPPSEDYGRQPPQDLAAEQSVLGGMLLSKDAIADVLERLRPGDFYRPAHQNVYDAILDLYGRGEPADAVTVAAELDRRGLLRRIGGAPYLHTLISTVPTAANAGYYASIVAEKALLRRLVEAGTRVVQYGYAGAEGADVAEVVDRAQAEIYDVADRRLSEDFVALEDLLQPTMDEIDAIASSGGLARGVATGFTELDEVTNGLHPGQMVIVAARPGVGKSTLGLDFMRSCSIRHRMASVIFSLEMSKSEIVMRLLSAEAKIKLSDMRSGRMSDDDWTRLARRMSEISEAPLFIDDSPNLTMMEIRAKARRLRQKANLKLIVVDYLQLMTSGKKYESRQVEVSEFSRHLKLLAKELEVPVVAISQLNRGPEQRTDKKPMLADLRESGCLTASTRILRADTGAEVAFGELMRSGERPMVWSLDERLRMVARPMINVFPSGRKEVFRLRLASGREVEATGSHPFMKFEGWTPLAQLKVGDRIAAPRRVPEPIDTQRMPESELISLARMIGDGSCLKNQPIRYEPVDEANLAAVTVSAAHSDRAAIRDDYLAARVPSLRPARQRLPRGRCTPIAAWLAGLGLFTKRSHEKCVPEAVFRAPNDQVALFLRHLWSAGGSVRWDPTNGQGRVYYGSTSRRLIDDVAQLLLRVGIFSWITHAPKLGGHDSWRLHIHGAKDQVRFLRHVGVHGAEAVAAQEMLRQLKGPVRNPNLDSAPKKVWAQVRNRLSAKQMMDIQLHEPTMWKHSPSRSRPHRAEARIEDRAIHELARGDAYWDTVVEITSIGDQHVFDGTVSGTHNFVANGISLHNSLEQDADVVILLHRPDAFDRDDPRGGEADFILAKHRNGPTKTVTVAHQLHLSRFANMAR

[12] = Intein inhibitors as potential Tuberculosis drugs, a cytotoxicity screen. [Related pubchem assays (depositor defined):AID2221, AID2223, AID434968, AID435010, AID449749, AID449750, AID489010]; assay type: functional
[13] = growth suppression of PTEN-null colon cells, dose response, cell-based, HCT116 PTEN knockout (AID 1047); assay type: functional;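 note: HCT116 colon tumor cells with PTEN knocked out; cells exposed to compound for 60 hours before readout; potency for loss of cell viability measured by luminescence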
[14] = A Cell Based Secondary Assay To Explore Cytotoxicity of Compounds that Sensitize Mycobacterium Tuberculosis to Beta-Lactam Antibiotics.; assay type: functional
[15] = target: T3, Protein RecA (Mycobacterium tuberculosis, UniProt P9WHJ3); assay: Fluorescence Cell-Free Homogeneous Dose Retest to Identify Inhibitors of RecA-Intein Splicing Activity. [Related pubchem assays (depositor defined):AID2097, AID2223, AID489010, AID492950]; assay type: functional
T3 sequence (P9WHJ3 whole entry): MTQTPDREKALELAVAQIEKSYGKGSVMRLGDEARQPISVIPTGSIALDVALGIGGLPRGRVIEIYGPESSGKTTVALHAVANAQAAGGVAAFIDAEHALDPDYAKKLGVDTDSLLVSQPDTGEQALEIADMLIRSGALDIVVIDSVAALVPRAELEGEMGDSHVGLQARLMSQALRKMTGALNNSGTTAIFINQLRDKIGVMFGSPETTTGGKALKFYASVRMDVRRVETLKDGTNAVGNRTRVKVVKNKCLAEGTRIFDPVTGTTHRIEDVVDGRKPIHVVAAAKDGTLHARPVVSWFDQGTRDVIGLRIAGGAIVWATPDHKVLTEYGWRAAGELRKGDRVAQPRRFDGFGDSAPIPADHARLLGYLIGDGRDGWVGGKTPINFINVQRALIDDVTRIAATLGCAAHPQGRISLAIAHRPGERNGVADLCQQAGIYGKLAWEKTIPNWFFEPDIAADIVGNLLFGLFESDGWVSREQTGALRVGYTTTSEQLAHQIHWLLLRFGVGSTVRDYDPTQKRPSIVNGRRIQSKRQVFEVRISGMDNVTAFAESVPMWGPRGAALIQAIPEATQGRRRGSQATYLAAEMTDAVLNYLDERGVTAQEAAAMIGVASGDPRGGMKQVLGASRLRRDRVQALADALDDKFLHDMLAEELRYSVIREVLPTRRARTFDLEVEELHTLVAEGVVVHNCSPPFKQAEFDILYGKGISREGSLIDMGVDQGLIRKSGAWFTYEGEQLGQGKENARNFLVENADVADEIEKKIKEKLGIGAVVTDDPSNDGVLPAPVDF

[16] = target: T4, Streptokinase A (Streptococcus pyogenes serotype M1, UniProt P10520); assay: S. pyogenes streptokinase expression inhibitors, potency, dose response, plasminogen activation absorbance, OD405 (AID 1914); assay type: functional, Streptococcus pyogenes M1 GAS;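 note: secreted streptokinase activity via plasminogen activation per viability signal from cell pellet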
T4 sequence (P10520 whole entry): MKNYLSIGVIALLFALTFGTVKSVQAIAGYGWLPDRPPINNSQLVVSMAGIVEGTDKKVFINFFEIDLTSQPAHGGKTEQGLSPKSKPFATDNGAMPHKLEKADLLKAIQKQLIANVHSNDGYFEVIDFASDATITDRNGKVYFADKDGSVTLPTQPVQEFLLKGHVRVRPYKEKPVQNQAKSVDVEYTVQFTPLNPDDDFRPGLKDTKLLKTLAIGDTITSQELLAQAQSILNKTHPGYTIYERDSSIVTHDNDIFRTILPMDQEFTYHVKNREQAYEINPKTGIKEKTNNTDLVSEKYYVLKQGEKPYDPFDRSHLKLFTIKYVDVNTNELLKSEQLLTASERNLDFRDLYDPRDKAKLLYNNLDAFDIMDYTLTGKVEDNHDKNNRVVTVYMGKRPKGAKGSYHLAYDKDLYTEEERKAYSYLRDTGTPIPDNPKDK

[17] = nonselective inhibitors of cellular cAMP signaling, dose response, counter-screen for MC4R biased antagonist project, cell-based, TR-FRET cAMP detection (AID 602305); assay type: functional;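 note: U2OS cells stimulated with forskolin near its EC80 as the cAMP inducer; potency is for inhibition of forskolin-stimulated cAMP signaling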
[18] = system: Streptococcus sp. 'group A'; assay: growth inhibition of control SK(-) GAS strain, dose response, counter-screen for streptokinase expression inhibitor project, luminescence, kanamycin, BacTiterGlo, confirmation (AID 1900); assay type: functional, organism-based
[19] = system: Streptococcus; assay: Group A Streptococcus viability loss, dose response, counter-screen for streptokinase expression inhibitor project, luminescence, BacTiterGlo (AID 1915); assay type: functional, organism-based;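 note: potency for reduction of bacterial viability or growth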
[20] = target: Melanocortin receptor 4 (Homo sapiens, UniProt P32245); assay: MC4R antagonist potency on cAMP, dose response, cell-based, TR-FRET, biased antagonists (AID 602298); assay type: functional;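 note: antagonist potency against agonist-stimulated cAMP production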
[21] = target: T5, Type-1 angiotensin II receptor (Homo sapiens, UniProt P30556); assay: AT1 receptor antagonists, dose response, selectivity assay for APJ receptor antagonist project, cell-based, uHTS hits (AID 463214); assay type: functional;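 note: antagonist potency against angiotensin II stimulated AT1 response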
T5 sequence (P30556 whole entry): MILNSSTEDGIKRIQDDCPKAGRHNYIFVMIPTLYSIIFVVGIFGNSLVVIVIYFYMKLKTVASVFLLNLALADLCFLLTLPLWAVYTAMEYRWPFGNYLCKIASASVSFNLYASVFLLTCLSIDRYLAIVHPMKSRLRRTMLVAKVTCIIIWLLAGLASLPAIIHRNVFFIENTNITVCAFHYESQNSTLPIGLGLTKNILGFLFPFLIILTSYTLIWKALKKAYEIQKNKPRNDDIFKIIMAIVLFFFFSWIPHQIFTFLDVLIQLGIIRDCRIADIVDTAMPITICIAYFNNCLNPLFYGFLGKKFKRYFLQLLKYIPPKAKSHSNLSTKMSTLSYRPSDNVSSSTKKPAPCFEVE

[22] = HepG2 cell cytotoxicity, dose response, cytotoxicity control for Shn3 inhibitor project, CellTiter-Glo, cherry-picked (AID 624134); assay type: functional, cell-based
[23] = control 3'UTR Renilla luciferase suppression, dose response, counter-screen for Shn3 inhibitor project, cell-based, Clone20-Shn3RL, cherry-picked (AID 624133); assay type: functional
[24] = Shn3 3'UTR reporter inhibitors, dose response, cell-based, Clone20 osteoblasts, firefly luciferase, cherry-picked (AID 624132); assay type: functional;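 note: firefly luciferase luminescence from reporter carrying the Shn3 3'UTR in osteoblasts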
[25] = target: Beta-galactosidase (Escherichia coli, UniProt Q8VNN2); assay: PubChem AID 485352; assay type: functional
[26] = target: Large T antigen (Simian virus 40, UniProt P03070); assay type: functional, Betapolyomavirus macacae;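 note: Confirmatory-stage PubChem screen for compounds that inhibit SV40 T antigen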
[27] = Luminescence Cell-Based Dose Retest to Confirm Inhibitors of Cancer Stem Cells. [Related pubchem assays (depositor defined):AID2717, AID2721]; assay type: functional; conditions: Homo sapiens

Sequence of Protein disulfide-isomerase (P07237 whole entry): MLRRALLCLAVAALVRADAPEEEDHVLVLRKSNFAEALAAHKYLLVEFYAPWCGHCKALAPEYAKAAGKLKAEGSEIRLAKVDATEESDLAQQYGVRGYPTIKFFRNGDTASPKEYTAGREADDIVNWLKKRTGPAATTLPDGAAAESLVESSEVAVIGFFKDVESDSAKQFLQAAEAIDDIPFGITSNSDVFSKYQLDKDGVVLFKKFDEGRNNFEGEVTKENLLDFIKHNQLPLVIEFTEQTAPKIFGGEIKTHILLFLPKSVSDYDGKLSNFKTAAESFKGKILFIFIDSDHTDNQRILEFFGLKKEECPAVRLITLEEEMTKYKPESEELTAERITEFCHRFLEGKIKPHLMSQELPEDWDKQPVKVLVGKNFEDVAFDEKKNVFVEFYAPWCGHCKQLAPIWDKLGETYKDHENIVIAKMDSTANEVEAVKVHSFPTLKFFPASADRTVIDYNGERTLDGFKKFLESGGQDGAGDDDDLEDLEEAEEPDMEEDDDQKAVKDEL
Sequence of Melanocortin receptor 4 (P32245 whole entry): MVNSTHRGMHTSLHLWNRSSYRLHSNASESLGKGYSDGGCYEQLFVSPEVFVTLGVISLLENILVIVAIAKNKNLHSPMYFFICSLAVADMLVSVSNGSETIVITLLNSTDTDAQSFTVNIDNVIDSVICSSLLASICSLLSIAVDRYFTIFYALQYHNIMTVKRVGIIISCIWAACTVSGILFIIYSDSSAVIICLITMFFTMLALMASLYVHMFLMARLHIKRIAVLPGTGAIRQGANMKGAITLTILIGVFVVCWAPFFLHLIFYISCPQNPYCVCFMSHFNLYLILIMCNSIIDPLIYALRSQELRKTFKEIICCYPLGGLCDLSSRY
Sequence of Paired box protein Pax-8 (Q06710 whole entry): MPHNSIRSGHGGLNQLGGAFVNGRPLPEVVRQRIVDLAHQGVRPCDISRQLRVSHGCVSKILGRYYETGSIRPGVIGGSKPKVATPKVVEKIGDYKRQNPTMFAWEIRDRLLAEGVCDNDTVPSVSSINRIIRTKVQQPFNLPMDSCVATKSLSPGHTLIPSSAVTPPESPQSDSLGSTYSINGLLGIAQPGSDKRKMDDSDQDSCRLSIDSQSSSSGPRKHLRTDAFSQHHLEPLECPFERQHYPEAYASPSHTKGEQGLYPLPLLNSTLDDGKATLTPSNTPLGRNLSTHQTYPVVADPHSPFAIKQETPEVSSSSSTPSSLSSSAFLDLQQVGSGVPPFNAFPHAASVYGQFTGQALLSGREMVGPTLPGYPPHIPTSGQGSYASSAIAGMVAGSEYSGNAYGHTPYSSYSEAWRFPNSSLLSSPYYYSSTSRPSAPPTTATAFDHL
Sequence of Beta-galactosidase (Q8VNN2 whole entry): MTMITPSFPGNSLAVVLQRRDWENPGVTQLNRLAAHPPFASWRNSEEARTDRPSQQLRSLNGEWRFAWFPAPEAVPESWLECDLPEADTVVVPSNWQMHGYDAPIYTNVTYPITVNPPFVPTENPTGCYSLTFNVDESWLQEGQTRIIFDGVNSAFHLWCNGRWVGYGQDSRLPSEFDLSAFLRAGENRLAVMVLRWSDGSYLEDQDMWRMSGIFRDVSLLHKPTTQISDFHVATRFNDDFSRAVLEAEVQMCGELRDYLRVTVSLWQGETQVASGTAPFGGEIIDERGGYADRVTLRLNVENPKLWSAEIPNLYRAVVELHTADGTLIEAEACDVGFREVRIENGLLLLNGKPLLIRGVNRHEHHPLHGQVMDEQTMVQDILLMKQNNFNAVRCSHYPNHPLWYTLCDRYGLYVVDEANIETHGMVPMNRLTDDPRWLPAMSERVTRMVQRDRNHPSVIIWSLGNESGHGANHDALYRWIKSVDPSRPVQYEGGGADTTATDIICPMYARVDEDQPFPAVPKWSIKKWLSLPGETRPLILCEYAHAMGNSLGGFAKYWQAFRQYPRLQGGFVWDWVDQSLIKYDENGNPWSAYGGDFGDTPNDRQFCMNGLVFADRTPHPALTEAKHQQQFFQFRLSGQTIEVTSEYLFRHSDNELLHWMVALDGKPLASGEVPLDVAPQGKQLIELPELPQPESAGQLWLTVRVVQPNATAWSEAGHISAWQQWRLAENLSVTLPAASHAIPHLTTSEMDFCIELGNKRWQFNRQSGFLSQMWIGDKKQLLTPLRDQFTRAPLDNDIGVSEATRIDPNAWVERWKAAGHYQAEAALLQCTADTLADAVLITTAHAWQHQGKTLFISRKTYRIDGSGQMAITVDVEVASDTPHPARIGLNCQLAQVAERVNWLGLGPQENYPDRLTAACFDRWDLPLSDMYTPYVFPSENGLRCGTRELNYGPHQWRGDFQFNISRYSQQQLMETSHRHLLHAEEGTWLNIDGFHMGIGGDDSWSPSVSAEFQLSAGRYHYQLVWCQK
Sequence of Large T antigen (P03070 whole entry): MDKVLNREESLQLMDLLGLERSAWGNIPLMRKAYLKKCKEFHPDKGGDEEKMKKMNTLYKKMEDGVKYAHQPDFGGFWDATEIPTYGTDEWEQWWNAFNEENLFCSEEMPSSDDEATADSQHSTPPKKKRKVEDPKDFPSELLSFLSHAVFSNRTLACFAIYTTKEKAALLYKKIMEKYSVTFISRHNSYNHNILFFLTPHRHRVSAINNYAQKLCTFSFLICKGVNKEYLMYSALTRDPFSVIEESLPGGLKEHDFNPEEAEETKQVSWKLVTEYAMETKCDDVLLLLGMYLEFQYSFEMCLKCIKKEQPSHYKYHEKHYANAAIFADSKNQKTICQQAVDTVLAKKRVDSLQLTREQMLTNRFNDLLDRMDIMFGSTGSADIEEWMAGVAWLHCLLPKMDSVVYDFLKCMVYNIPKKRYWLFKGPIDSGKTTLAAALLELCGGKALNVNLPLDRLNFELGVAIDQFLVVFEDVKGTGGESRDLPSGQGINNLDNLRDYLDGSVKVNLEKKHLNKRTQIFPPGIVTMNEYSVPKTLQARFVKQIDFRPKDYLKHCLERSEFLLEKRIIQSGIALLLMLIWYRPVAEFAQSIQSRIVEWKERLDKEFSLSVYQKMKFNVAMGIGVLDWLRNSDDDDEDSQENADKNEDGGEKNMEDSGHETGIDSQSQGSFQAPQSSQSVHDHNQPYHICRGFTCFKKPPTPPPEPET

COc1ccc(C2c3ccc(O)cc3Oc3ncn(CCN4CCOCC4)c(=N)c32)cc1OC (stereo not given)
active: AC50 [1] 15.5 µM

COc1ccc(-c2cn3c([n+]2-c2ccc(C)cc2)CCCCC3)cc1
active: EC50 [2] 9.77 µM | EC50 [6] 0.171 µM | AC50 [7] 0.348 µM
> 60 µM (not active): EC50 [5]
inactive: IC50 [3] > 80 µM | IC50 [4] > 80 µM

Cc1nn(-c2ccccc2)c(Cl)c1CN(C(=O)CCl)c1cccc2ccccc12
active: AC50 [8] 9.95 µM | EC50 [2] 16.7 µM | AC50 [9] 11.3 µM | EC50 [10] 2.25 µM | AC50 [11] 2.28 µM | CC50 [12] 1.81 µM | EC50 [13] 3.44 µM | CC50 [14] 0.591 µM | EC50 [15] 0.571 µM

COC(=O)c1cc(S(=O)(=O)n2nc(C)c(Br)c2C)c(Cl)cc1Cl
inactive: IC50 [17] > 64.6 µM | IC50 [20] > 64.6 µM
active: EC50 [18] 1.8 µM | EC50 [19] 10.4 µM
> 150 µM (not active): EC50 [16]

CCS(=O)(=O)c1ncc(Cl)c(C(=O)Nc2ccc(S(=O)(=O)N3CCCC(C)C3)cc2)n1 (stereo not given)
inactive: IC50 [17] > 64.6 µM | EC50 [25] > 40 µM
active: IC50 [21] 2.18 µM | AC50 [8] 5.34 µM | AC50 [22] 9.33 µM | AC50 [23] 3.95 µM | EC50 [5] 3.48 µM | AC50 [24] < 0.26 µM | IC50 [20] > 0.797 µM | EC50 [6] 2.25 µM | AC50 [7] 4.76 µM | IC50 [26] 62.8 µM

Oc1ccc(/C=C/c2nc(-c3ccccc3O)n(-c3ccccc3)n2)cc1
active: AC50 [27] 6.8 µM | AC50 [1] 18.8 µM
